Molecules are shown by their SMILES.

Series [1] can be described thus: pKa of conjugate acid by 1H NMR titration (nonfluorinated analogues). Type of series: physicochemical. Conditions: aqueous solutions of different pH, conjugate acid (pyridinium), water. The protocol: The measurements were conducted on the corresponding conjugate acids of the thiofluoroalkylpyridines using an ^19F NMR method developed by Leito and coworkers. For nonfluorinated analogues, pK a was determined by an analogous method using ^1H NMR. […] Likewise, internal difluorination of the thioethyl group led to a more acidic pyridinium (9, pK a 2.05) compared to terminal difluorination (6, pK a 2.43). […] Computationally, it is straightforward to determine pK a values for molecular organic systems, obtaining quantitative predictions via fitting to experimental data (Table S12).
A protocol developed by the group of Leito was followed for the determination of the […] of fluorinated 2-substituted pyridines using ^19F NMR. […] Next, the tube was caped and shaken vigorously, and the pH of the resulting solution was measured inside the tube with a pH meter with an NMR-tube probe. […] Next, a standard ^19F NMR experiment was recorded to determine the chemical shifts of the external standard and the sample of interest. […] The battery of NMR samples at different pH values was measured. • Data processing: using MestReNova NMR software, the chemical shifts of the pyridines were determined. […] Next, the selected signal for each pyridine was plotted against the pH of the measured solution. […]

The nature of series [2]: logD7.4 by shake-flask HPLC-UV for nonfluorinated pyridines. Format: physicochemical. The following applies: nonfluorinated pyridines, mean of three. The procedure: A protocol described by Ràfols and coworkers was followed for the determination of the log D ^7.4 values of the nonfluorinated pyridines. The 4-step process was replicated three times for each compound: • Stocksolution preparation: in a 12 mL vial, 15 mg of the pyridine was charged. Then, 6 mL of phosphate buffer at pH 7.4 was added, and the mixture was vigorously shaken for 2 h. An aliquot of this stock solution was measured by HPLC-UV. • Partitioning: three partitioning experiments were carried out for each compound. To prepare an experiment, in a vial containing a magnetic stir bar, a known amount of the stock solution was introduced, followed by another known amount of 1-octanol. Next, the biphasic mixture was stirred for 2 h and left to stand overnight to allow phase partition. For the selection of the different volume ratios, it was followed reported recommendations, although 1:1, 10:1, and 1:10 octanol:stock solutions were usually employed. • Sample preparation and measurement: to prepare the sample, 0.1 mL of the aqueous phase was taken and introduced in a 2 mL vial, following the precautions described in the previous section. The samples were then analyzed with the same HPLC-UV method as that of the stock solution. The log D ^7.4 value was obtaining by comparing the initial amount of pyridine in the aqueous phase before and after partitioning, taking into consideration the volume rates.

`CCSc1ccccn1` [Compound 5, 2-(Ethylthio)pyridine] showed a pKa in series [1] of 3.68. The logD7.4 in series [2] (1-octanol/phosphate buffer pH 7.4, HPLC-UV) is recorded as 2,26. The logD in series [2] (1-octanol/phosphate buffer, pH 7.4, 1-octanol/phosphate buffer pH 7.4, HPLC-UV) stood at 2.26.

The pKa is the pH at which an ionisable group is half protonated. The term logD denotes the decadic logarithm of the distribution of all forms, ionised or not, between an organic phase and buffer at a given pH. A higher logD goes with a more lipophilic compound.
